# BindingDB's records for doi:10.1016/j.bmcl.2004.01.093 (University of California Irvine, 2004)
# Target: Protein phosphatase 1 catalytic subunit (Oryctolagus cuniculus)
# Test: Inhibitory activity against protein phosphatase-1 from rabbit skeletal muscle
row,SMILES,IC50 [µM]
1,CCOC(=O)c1ccc(NC(=O)C2C(C(=O)O)[C@@H]3C=C[C@H]2O3)cc1 (stereo partly specified),76
2,"COC(=O)c1cccc(NC(=O)C2C(C(=O)O)[C@@H]3C=C[C@H]2O3)c1 (stereo partly drawn) [(1S,4R)-3-(3-Methoxycarbonyl-phenylcarbamoyl)-7-oxa-bicyclo[2.2.1]hept-5-ene-2-carboxylic acid]",60
3,"CNC(=O)C1C(C(=O)O)[C@@H]2C=C[C@H]1O2 (stereo partly drawn) [(1S,4R)-3-Methylcarbamoyl-7-oxa-bicyclo[2.2.1]hept-5-ene-2-carboxylatemethyl-ammonium;]",> 100
4,"N#CC[C@]12C=C[C@H](O1)[C@@H]1C(=O)OC(=O)C12 (stereo partly drawn) [((1R,6R,7S)-3,5-Dioxo-4,10-dioxa-tricyclo[5.2.1.0*2,6*]dec-8-en-1-yl)-acetonitrile]",> 100
5,"CC(=O)NC[C@@]12CC[C@@H](O1)C1C(=O)OC(=O)[C@H]12 (stereo partly drawn) [N-((1S,2R,7R)-3,5-Dioxo-4,10-dioxa-tricyclo[5.2.1.0*2,6*]dec-1-ylmethyl)-acetamide]",> 100
6,"CC(=O)NC[C@@]12C=C[C@@H](O1)C1C(=O)OC(=O)[C@H]12 (stereo partly drawn) [N-((1S,2R,7R)-3,5-Dioxo-4,10-dioxa-tricyclo[5.2.1.0*2,6*]dec-8-en-1-ylmethyl)-acetamide]",> 100
